Reference: ChEMBL document CHEMBL1201862, “PubChem BioAssay data set” (2004)
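Test compounds were applied to cells in 96-well plates for 48 hours at 5 doses. Here, GI50 denotes the concentration required for 50% inhibition of growth.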 Activity calls are given as the source filed them. Cut-off read from the data, not from the text of the source: active = GI50 up to about 1.1 µM and inactive = higher.

Experiments:
Assay in all cases: inhibition of tumour cell growth, NCI panel, 48 h
[1] = system: SK-MEL-2
[2] = system: SNB-78
[3] = system: SF-539
[4] = system: IGROV-1
[5] = system: SK-OV-3
[6] = system: ACHN
[7] = system: DLD-1
[8] = system: DMS-273
[9] = system: NCI-H460
[10] = system: HOP-92
[11] = system: KM-20L2
[12] = system: UACC-257
[13] = system: U-251
[14] = system: UACC-62
[15] = system: SF-268
[16] = system: DMS-114
[17] = system: MDA-MB-435
[18] = system: MDA-MB-231
[19] = system: T47D
[20] = system: PC-3

Row | SMILES | GI50 [1] | GI50 [2] | GI50 [3] | GI50 [4] | GI50 [5] | GI50 [6] | GI50 [7] | GI50 [8] | GI50 [9] | GI50 [10] | GI50 [11] | GI50 [12] | GI50 [13] | GI50 [14] | GI50 [15] | GI50 [16] | GI50 [17] | GI50 [18] | GI50 [19] | GI50 [20]
1 | CC(=O)NNc1nc(C)c(C(/C=C/c2ccc(Cl)cc2)=N\NS(=O)(=O)c2ccc(C)cc2)s1 | > 100 µM (inactive) | > 100 µM (inactive) | > 100 µM (inactive) | > 100 µM (inactive) | > 100 µM (inactive) | > 100 µM (inactive) | > 100 µM (inactive) | > 100 µM (inactive) | > 100 µM (inactive) | > 100 µM (inactive) | > 100 µM (inactive) | > 100 µM (inactive) | > 100 µM (inactive) | > 100 µM (inactive) | > 100 µM (inactive) |  |  |  |  | 
2 | O=C(c1ccccc1)c1cccc(C(=O)c2ccccc2)c1 | > 100 µM (inactive) | > 100 µM (inactive) | > 100 µM (inactive) | > 100 µM (inactive) | > 100 µM (inactive) | > 100 µM (inactive) | > 100 µM (inactive) | > 100 µM (inactive) | > 100 µM (inactive) | 53 µM (inactive) |  | > 100 µM (inactive) | > 100 µM (inactive) | > 100 µM (inactive) | > 100 µM (inactive) | 43.4 µM (inactive) |  |  |  | 
3 | NC(=O)c1cc([N+](=O)[O-])cc([N+](=O)[O-])c1 [NITROMIDE] | > 100 µM (inactive) |  | > 100 µM (inactive) | > 100 µM (inactive) | > 100 µM (inactive) | > 100 µM (inactive) | > 100 µM (inactive) | > 100 µM (inactive) | > 100 µM (inactive) | > 100 µM (inactive) | > 100 µM (inactive) | > 100 µM (inactive) | > 100 µM (inactive) | 96.8 µM (inactive) | > 100 µM (inactive) | 38.5 µM (inactive) |  |  |  | 
4 | O=C(O)c1nc(-c2ccc(Cl)c(Cl)c2)nc2ccc(Cl)cc12 | 78 µM (inactive) | 27.9 µM (inactive) | > 100 µM (inactive) | 51.5 µM (inactive) | 17.8 µM (inactive) | > 100 µM (inactive) | > 100 µM (inactive) | 44.7 µM (inactive) | > 100 µM (inactive) |  | > 100 µM (inactive) | > 100 µM (inactive) | 61.5 µM (inactive) | > 100 µM (inactive) | 63 µM (inactive) |  |  |  |  | 
5 | O=C1N=CN=C2C=CC(Cl)=C(I)C12 (stereo not drawn) | 81.5 µM (inactive) |  |  | 33.3 µM (inactive) | 49.3 µM (inactive) | 43.4 µM (inactive) | 58.5 µM (inactive) | 73.8 µM (inactive) | 75.5 µM (inactive) |  | > 100 µM (inactive) | > 100 µM (inactive) | 74.3 µM (inactive) | 45.3 µM (inactive) | 20.2 µM (inactive) | 84.7 µM (inactive) |  |  |  | 
6 | CO[C@H]1C[C@H](O[C@H]2CC[C@@]3(C)[C@H](CC[C@@H]4[C@@H]3CC[C@]3(C)[C@@H](C5=CC(=O)OC5)CC[C@]43O)C2)O[C@H](C)[C@H]1O | 0.0151 µM (active) |  | < 0.01 µM (active) | < 0.01 µM (active) | < 0.0113 µM (active) | < 0.01 µM (active) |  |  | < 0.01 µM (active) | < 0.01 µM (active) |  | < 0.0137 µM (active) | < 0.01 µM (active) | < 0.0125 µM (active) | < 0.01 µM (active) |  | < 0.0111 µM (active) | 0.0498 µM (active) | < 0.01 µM (active) | < 0.01 µM (active)
7 | Oc1cc(-c2ccccn2)nc2cc(F)ccc12 |  | > 100 µM (inactive) | 58.6 µM (inactive) | > 100 µM (inactive) | > 100 µM (inactive) | > 100 µM (inactive) | 81.8 µM (inactive) |  | 38.7 µM (inactive) | 48.2 µM (inactive) | > 100 µM (inactive) | > 100 µM (inactive) |  | 55.8 µM (inactive) |  |  |  |  |  | 
8 | O=C1/C(=C\c2cccc(Oc3ccccc3)c2)SC(c2ccccc2)N1c1cc(Cl)ccc1Cl (stereo not drawn) | 43.5 µM (inactive) |  | 24.3 µM (inactive) | 26.3 µM (inactive) | > 100 µM (inactive) | 43.7 µM (inactive) |  |  | 45.4 µM (inactive) | 17.7 µM (inactive) |  | 32.7 µM (inactive) | 33.4 µM (inactive) | 31.4 µM (inactive) | 22.2 µM (inactive) |  | 32.3 µM (inactive) | 32.4 µM (inactive) | 28.4 µM (inactive) | 52.4 µM (inactive)
9 | O=[N+]([O-])C1C2C=CC(C2)[C@H]1c1ccc(Cl)cc1Cl (stereo partly drawn) | 44.9 µM (inactive) | 48.4 µM (inactive) | 35.8 µM (inactive) |  |  | 33 µM (inactive) | 20.3 µM (inactive) | 46.5 µM (inactive) | 36.2 µM (inactive) | 23.3 µM (inactive) |  | 31.8 µM (inactive) | 35.3 µM (inactive) |  | 45.1 µM (inactive) |  |  |  |  | 
10 | O=C(c1ccccc1)c1c(CC(O)c2ccccc2)n(C(=O)c2ccccc2)c2ccccc12 (stereo not drawn) | 36.5 µM (inactive) |  | 34.2 µM (inactive) | 42.6 µM (inactive) |  | 34.4 µM (inactive) | 40.9 µM (inactive) | 43 µM (inactive) | 30.1 µM (inactive) | 29.7 µM (inactive) | 55.8 µM (inactive) | 35.3 µM (inactive) | 36.1 µM (inactive) | 46.3 µM (inactive) | 43.5 µM (inactive) | 28 µM (inactive) |  |  |  | 
11 | CCOC(=O)CCc1c(C)c2c(OC)cc(OC)cc2oc1=O | > 100 µM (inactive) | > 100 µM (inactive) | > 100 µM (inactive) |  |  | 42.4 µM (inactive) | 91.6 µM (inactive) | 41.8 µM (inactive) | > 100 µM (inactive) | 22.3 µM (inactive) | > 100 µM (inactive) | > 100 µM (inactive) | > 100 µM (inactive) |  | 34.4 µM (inactive) |  |  |  |  | 
12 | COc1ccc(C(SCCO)(c2ccccc2)c2ccc(OC)cc2)cc1 | 11.1 µM (inactive) |  | 14.7 µM (inactive) | 16.8 µM (inactive) | 10.8 µM (inactive) | 16 µM (inactive) |  |  | 4.61 µM (inactive) | 14.6 µM (inactive) |  | 14.7 µM (inactive) | 4.46 µM (inactive) | 11.5 µM (inactive) | 10.2 µM (inactive) |  | 5.65 µM (inactive) | 9.64 µM (inactive) | 11.9 µM (inactive) | 14.5 µM (inactive)
13 | Sc1ncnc2c1ncn2Cc1ccco1 | > 100 µM (inactive) |  | > 100 µM (inactive) | > 100 µM (inactive) | > 100 µM (inactive) | > 100 µM (inactive) |  |  | > 100 µM (inactive) | > 100 µM (inactive) |  | > 100 µM (inactive) | > 100 µM (inactive) | > 100 µM (inactive) | > 100 µM (inactive) |  | > 100 µM (inactive) | > 100 µM (inactive) | > 100 µM (inactive) | > 100 µM (inactive)
14 | COC(=O)[C@]1(C)CCC[C@@]2(C)C1CCC1=CC3(C(C)C)CCC12OO3 (stereo partly drawn) | 46.9 µM (inactive) | 51.3 µM (inactive) | > 100 µM (inactive) | > 100 µM (inactive) | > 100 µM (inactive) | 63.4 µM (inactive) | 50.1 µM (inactive) |  | 58.6 µM (inactive) |  | 94 µM (inactive) | 31.5 µM (inactive) | > 100 µM (inactive) | 57 µM (inactive) | > 100 µM (inactive) |  |  |  |  | 
15 | C=CC(C)CCC(C/C=C(\C)CCCC(C)C)C(=C)CCCC(C)C (stereo not drawn) | > 100 µM (inactive) |  | > 100 µM (inactive) | > 100 µM (inactive) | > 100 µM (inactive) | > 100 µM (inactive) |  |  | > 100 µM (inactive) | > 100 µM (inactive) |  | > 100 µM (inactive) | > 100 µM (inactive) | > 100 µM (inactive) | > 100 µM (inactive) |  | > 100 µM (inactive) | > 100 µM (inactive) | > 100 µM (inactive) | > 100 µM (inactive)
16 | CC(=O)OC1C(O)COC(O[C@H]2CC[C@]34C[C@]35CC[C@]3(C)C([C@@]6(C)CC[C@@H](C(C)(C)O)O6)[C@@H](O)C[C@@]3(C)C5C[C@H](OC3OCC(O)C(O)C3O)[C@H]4C2(C)C)C1OC1OCC(O)C(O)C1O (stereo partly drawn) | > 100 µM (inactive) |  | > 100 µM (inactive) | > 100 µM (inactive) | > 100 µM (inactive) | > 100 µM (inactive) |  |  | > 100 µM (inactive) | > 100 µM (inactive) |  | > 100 µM (inactive) | > 100 µM (inactive) | > 100 µM (inactive) | > 100 µM (inactive) |  | > 100 µM (inactive) | > 100 µM (inactive) | > 100 µM (inactive) | > 100 µM (inactive)
17 | CCCCCCCCCCCCCCCCCCNc1ccn(C2OC(COP(=O)(O)OCC3OC(n4ccc(N)nc4=O)C(O)C3O)C(O)C2O)c(=O)n1 (stereo not drawn) | > 100 µM (inactive) |  | > 100 µM (inactive) | 30.3 µM (inactive) | > 86.9 µM (inactive) | 29.9 µM (inactive) |  |  | 14.3 µM (inactive) | > 51.3 µM (inactive) |  | > 100 µM (inactive) | 57.8 µM (inactive) | > 93.3 µM (inactive) | 63.8 µM (inactive) |  | > 73.1 µM (inactive) | > 100 µM (inactive) | > 78.3 µM (inactive) | 39.8 µM (inactive)
18 | C=C1c2nc3ccccc3n2C=C(c2ccc(OC)cc2)N1c1ccccc1 | 5.28 µM (inactive) |  | 6.67 µM (inactive) | 5.85 µM (inactive) | 47.8 µM (inactive) | 39.7 µM (inactive) |  |  | 3.94 µM (inactive) | 30.2 µM (inactive) |  | 13.3 µM (inactive) | 5.31 µM (inactive) | 3.67 µM (inactive) | 50 µM (inactive) |  | 1.17 µM (inactive) | 11.1 µM (inactive) | 6.4 µM (inactive) | 9.12 µM (inactive)
